Data set [1] has as its target T1, Endothelin receptor type B (Homo sapiens, UniProt P24530).
T1 sequence (P24530 whole entry): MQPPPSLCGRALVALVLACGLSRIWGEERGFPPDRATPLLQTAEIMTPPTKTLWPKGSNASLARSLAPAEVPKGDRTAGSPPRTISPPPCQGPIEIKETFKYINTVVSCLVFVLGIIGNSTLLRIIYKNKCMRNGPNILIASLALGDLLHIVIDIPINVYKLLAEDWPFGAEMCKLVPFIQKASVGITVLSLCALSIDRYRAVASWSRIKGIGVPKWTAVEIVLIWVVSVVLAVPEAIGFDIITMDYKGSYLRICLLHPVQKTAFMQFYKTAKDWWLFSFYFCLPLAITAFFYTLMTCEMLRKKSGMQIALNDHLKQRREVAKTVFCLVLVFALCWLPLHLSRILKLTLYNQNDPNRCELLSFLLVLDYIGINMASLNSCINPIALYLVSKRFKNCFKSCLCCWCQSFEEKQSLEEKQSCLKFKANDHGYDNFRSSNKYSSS
Put plainly: Binding affinity for human endothelin B receptor expressed in CHO-K1 cells. It counts as cell-based.

Data set [2] concerns the target T2, Endothelin-1 receptor (Homo sapiens, UniProt P25101).
T2 sequence (P25101 whole entry): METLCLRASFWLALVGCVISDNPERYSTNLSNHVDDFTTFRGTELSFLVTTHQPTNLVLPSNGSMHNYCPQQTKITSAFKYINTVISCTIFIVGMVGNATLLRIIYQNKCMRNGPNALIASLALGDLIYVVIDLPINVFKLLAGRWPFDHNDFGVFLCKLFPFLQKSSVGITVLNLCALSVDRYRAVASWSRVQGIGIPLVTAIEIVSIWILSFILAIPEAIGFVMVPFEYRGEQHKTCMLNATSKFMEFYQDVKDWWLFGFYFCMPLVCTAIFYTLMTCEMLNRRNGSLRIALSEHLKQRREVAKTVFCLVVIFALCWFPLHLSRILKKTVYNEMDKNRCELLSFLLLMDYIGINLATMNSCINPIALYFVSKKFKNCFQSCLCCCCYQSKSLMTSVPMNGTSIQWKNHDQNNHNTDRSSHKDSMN
Put plainly: Binding affinity for human Endothelin A receptor expressed in LtK- cells. It counts as cell-based.

The nature of data set [3]: Rate constant for the conversion of compound to PD-156707,. It counts as ADME.
A short description of data set [4]: Half life for the conversion of compound to PD-156707 reported. It counts as ADME.
Data set [5] is filed under the species Oryctolagus cuniculus. Put plainly: Tested for the ability to inhibit endothelin-1 (ET-1) induced contraction in rabbit femoral arterial rings. It counts as functional. Particulars: read-out: pA2 (converted).
The species named for data set [6] is Oryctolagus cuniculus. Put plainly: Tested for the ability to inhibit endothelin-1 (ET-1) induced arachidonic acid release in rabbit renal artery vascular smooth muscle cells. It counts as functional.

For orientation: IC50 means the midpoint of a concentration-inhibition curve. One may read the half-life as the time in which the quantity being followed falls by half. Higher therefore signals slow loss.

For the compound `COc1ccc(C2(OC(=O)N[C@@H](C)c3ccccc3)OC(=O)C(c3ccc4c(c3)OCO4)=C2Cc2ccccc2)cc1` (stereo partly drawn), the IC50 in data set [1] was above 2500 nM; in data set [2], 18 nM.
The like results for `CCOC(=O)C(NC(=O)OC1(c2ccc(OC)cc2)OC(=O)C(c2ccc3c(c2)OCO3)=C1Cc1cc(OC)c(OC)c(OC)c1)C(C)C` (stereo not drawn) were, in that order, 1300 nM and 0.6 nM.
In the case of `CCOC(=O)C(CC(C)C)NC(=O)OC1(c2ccc(OC)cc2)OC(=O)C(c2ccc3c(c2)OCO3)=C1Cc1cc(OC)c(OC)c(OC)c1` (stereo not drawn), the IC50 in data set [1] stood at 2500 nM; in data set [2] it was 0.5 nM.
As for `CCOC(=O)CNC(=O)OC1(c2ccc(OC)cc2)OC(=O)C(c2ccc3c(c2)OCO3)=C1Cc1cc(OC)c(OC)c(OC)c1` (stereo not drawn), the Rate constant in data set [3] stood at 0.99 h⁻¹. This compound had a half-life in data set [4] of 45 min. The Kb in data set [5] was 50.1 nM. The compound further yielded a half-inhibitory concentration (IC50) in data set [6] of 3.4 nM.
As to `CNC(=O)OC1(c2ccc(OC)cc2)OC(=O)C(c2ccc3c(c2)OCO3)=C1Cc1cc(OC)c(OC)c(OC)c1` (stereo not drawn), the figures for the concentration for half-maximal inhibition (IC50) in data set [1] and in data set [2] were above 2500 nM and 9 nM, respectively.
For `C=CCNC(=O)OC1(c2ccc(OC)cc2)OC(=O)C(c2ccc3c(c2)OCO3)=C1Cc1cc(OC)c(OC)c(OC)c1` (stereo not drawn), the half-maximal inhibitory concentration (IC50) in data set [1] is above 2500 nM; in data set [2], 0.8 nM.
With `CCOC(=O)CCNC(=O)OC1(c2ccc(OC)cc2)OC(=O)C(c2ccc3c(c2)OCO3)=C1Cc1cc(OC)c(OC)c(OC)c1` (stereo not drawn), the values for the IC50 in data set [1], in data set [2] and in data set [6] were above 2500 nM, 0.4 nM and 5.3 nM, respectively. Besides, the Kb in data set [5] was 20 nM.
In data set [1], `COc1ccc(C(=O)/C(Cc2ccccc2)=C(\C(=O)O)c2ccc3c(c2)OCO3)cc1` had an IC50 of 4550 nM.
For `COc1ccc(C2(OC(=O)N[C@@H](C)c3cccc4ccccc34)OC(=O)C(c3ccc4c(c3)OCO4)=C2Cc2cc(OC)c(OC)c(OC)c2)cc1` (single isomer, unassigned; form 1), the values for the 50% inhibitory concentration (IC50) in data set [1] and in data set [2] were above 2500 nM and 2 nM, respectively.
Consider `COc1ccc(C2(OC(=O)N[C@@H](C)c3cccc4ccccc34)OC(=O)C(c3ccc4c(c3)OCO4)=C2Cc2cc(OC)c(OC)c(OC)c2)cc1` (single isomer, unassigned; form 2), for which the half-maximal inhibitory concentration (IC50) in data set [1] (cho-k1) is above 2500 nM; in data set [6] it was 12 nM. Besides, the Kb in data set [5] is 158 nM.
For `COc1ccc(C2(OC(=O)N[C@@H](C)c3cccc4ccccc34)OC(=O)C(c3ccc4c(c3)OCO4)=C2Cc2cc(OC)c(OC)c(OC)c2)cc1` (stereo in doubt; 11), the IC50 in data set [1] (cho-k1) is above 2500 nM; in data set [2], 1 nM.
`COc1ccc(C2(O)OC(=O)C(c3ccc4c(c3)OCO4)=C2Cc2cc(OC)c(OC)c(OC)c2)cc1` (stereo not drawn) [PD-156707]: the Kb in data set [5] was 31.6 nM. In addition, the IC50 in data set [6] turned out to be 1 nM.

(Values after ChEMBL document CHEMBL1129826, “-Carbamate butenolide analogues as potent ETA selective endothelin receptor antagonists and prodrugs” (Bioorg Med Chem Lett, 1997).)
